Data published in US6806230B1, “Pyrimidine derivatives and herbicides containing them” (Kumiai Chemical Industry Co., Ltd., priority 1999, dated 2004).
Values joined by “and” are separate entries in the source; they are usually repeats but may differ in a detail not shown here. Identical values can stand only once.

Assays:
green foxtail (Se) = assay: Test Example 2: herbicidal effects by upland soil treatment; assay type: in vivo; details: dose 100 g active ingredient per 10 ares, examined on the 21st day after treatment, standards of Table 44;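 also: 0-5 growth inhibition grade; 5 = over 90%; 4 = 70-90%; 3 = 50-70%; 2 = 30-50%; 1 = 10-30%; 0 = under 10%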
In short: (§1)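 Pre-emergence test: barnyard grass and green foxtail sown in upland soil, then soil surface sprayed with wettable-powder formulation at 100 g active ingredient per 10 ares (100 l per 10 ares). Grown in greenhouse; herbicidal effect scored on a rating scale 21 days after treatment.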

monochoria (Mo) [1] = assay: Test Example 1: herbicidal effects by flooded paddy field treatment; assay type: in vivo; set-up: herbicidal effects, Mo (monochoria):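 0-5 growth inhibition grade; 5 = over 90%; 4 = 70-90%; 3 = 50-70%; 2 = 30-50%; 1 = 10-30%; 0 = under 10%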; details: for Herbicidal effect index, Mo: dose 100 gai/10a, examined on 21st day after treatment, index 0-5 per Table 44; for herbicidal effects, Mo (monochoria): dose 100 g active ingredient per 10 ares, examined on the 21st day after treatment, standards of Table 44;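 as to Herbicidal effect index, Mo: 0-5 growth inhibition grade; 5 = over 90%; 4 = 70-90%; 3 = 50-70%; 2 = 30-50%; 1 = 10-30%; 0 = under 10%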
In short: (§2)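 Pots hold puddled paddy soil; seeds are sown and the pots flooded 3 cm deep. Next day, diluted wettable powder goes dropwise onto the water at a dose of 100 g active ingredient per 10 ares, and herbicidal effects are rated after 21 days in a greenhouse.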

monochoria (Mo) [2] = assay: Test Example 4: selectivity for a crop plant by flooded paddy field treatment; assay type: in vivo; set-up: scale not given here; details: for Mo (herbicidal effects, index): dose 25 g active ingredient per 10 ares, examined on the 21st day after treatment; for Mo (herbicidal effect index): monochoria, dose 25 gai/10a, 21st day after treatment, index per Table 44
In short: (§3)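 Rice at the second-leaf stage is transplanted into puddled, 3 cm-flooded paddy soil alongside sown weed seeds, and a diluted wettable powder is dripped onto the water surface the following day at 25 g a.i./10 ares. Effects are rated 21 days later.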

rice (Or) = assay: as above; assay type: in vivo; set-up: scale not given here; details: rice transplanted at second leaf stage; for Or (effect on crop plant rice, index): dose 25 g active ingredient per 10 ares, examined on the 21st day after treatment; for Or (herbicidal effect index on crop): dose 25 gai/10a, 21st day after treatment, index per Table 44
In short: as §3

barnyard grass (Eo) [3] = assay: as above; assay type: in vivo; set-up: scale not given here; details: for Eo (herbicidal effects, index): dose 25 g active ingredient per 10 ares, examined on the 21st day after treatment; for Eo (herbicidal effect index): barnyard grass, dose 25 gai/10a, 21st day after treatment, index per Table 44
In short: as §3

barnyard grass (Ec) [4] = assay: Test Example 2: herbicidal effects by upland soil treatment; assay type: in vivo; set-up: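 0-5 growth inhibition grade; 5 = over 90%; 4 = 70-90%; 3 = 50-70%; 2 = 30-50%; 1 = 10-30%; 0 = under 10%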; details: dose 100 g active ingredient per 10 ares, examined on the 21st day after treatment; for herbicidal effects, Ec (barnyard grass): standards of Table 44
In short: as §1

barnyard grass (Ec) [5] = assay: Test Example 3: herbicidal effects by foliage treatment in upland field; assay type: in vivo; set-up: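 0-5 growth inhibition grade; 5 = over 90%; 4 = 70-90%; 3 = 50-70%; 2 = 30-50%; 1 = 10-30%; 0 = under 10%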; details: dose 100 g active ingredient per 10 ares, examined on the 14th day after treatment
In short: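 Barnyard grass and green foxtail were grown in upland soil for 2 weeks in a greenhouse. A water-diluted wettable powder was sprayed over the foliage at 100 l per 10 ares, giving 100 g active ingredient per 10 ares. Herbicidal effect was scored on day 14 after treatment.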

soybean (G1) = assay: Test Example 5: selectivity for a crop plant by soil treatment in upland field; assay type: in vivo; set-up: scale not given here; details: dose 25 gai/10a, 21st day after treatment, index per Table 44
In short: (§4)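 Upland soil in pots was sown with barnyard grass, green foxtail, soybean, wheat and corn. A diluted wettable powder was sprayed onto the soil surface (100 l per 10 ares) at 25 g active ingredient per 10 ares. Herbicidal effect was scored against a rating standard 21 days after treatment, with plants grown in a greenhouse.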

barnyard grass (Ec) [6] = assay: as above; assay type: in vivo; set-up: scale not given here; details: dose 25 gai/10a, 21st day after treatment, index per Table 44
In short: as §4

wheat (Tr) = assay: as above; assay type: in vivo; set-up: scale not given here; details: dose 25 gai/10a, 21st day after treatment, index per Table 44
In short: as §4

corn (Ze) = assay: as above; assay type: in vivo; set-up: scale not given here; details: dose 25 gai/10a, 21st day after treatment, index per Table 44
In short: as §4

barnyard grass (Eo) [7] = assay: Test Example 1: herbicidal effects by flooded paddy field treatment; assay type: in vivo; set-up: herbicidal effects, Eo (barnyard grass):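 0-5 growth inhibition grade; 5 = over 90%; 4 = 70-90%; 3 = 50-70%; 2 = 30-50%; 1 = 10-30%; 0 = under 10%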; details: for Herbicidal effect index, Eo: dose 100 gai/10a, examined on 21st day after treatment, index 0-5 per Table 44; for herbicidal effects, Eo (barnyard grass): dose 100 g active ingredient per 10 ares, examined on the 21st day after treatment, standards of Table 44;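 as to Herbicidal effect index, Eo: 0-5 growth inhibition grade; 5 = over 90%; 4 = 70-90%; 3 = 50-70%; 2 = 30-50%; 1 = 10-30%; 0 = under 10%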
In short: as §2

Structure (SMILES): CC(C)C(c1cncnc1C1CC1)N(C)C(=O)Cc1ccc(Cl)cc1 (racemic) [Compound 1-78]
- herbicidal effects, Se (green foxtail) (green foxtail (Se)): 5
- Herbicidal effect index, Mo (monochoria (Mo) [1]): 5
- Mo (herbicidal effects, index) (monochoria (Mo) [2]): 5
- Or (effect on crop plant rice, index) (rice (Or)): 1
- Eo (herbicidal effects, index) (barnyard grass (Eo) [3]): 5
- herbicidal effects, Ec (barnyard grass) (barnyard grass (Ec) [4]): 5
- Ec (herbicidal effects, index) (barnyard grass (Ec) [5]): 5
- Gl (herbicidal effect index on crop) (soybean (G1)): 0
- Ec (herbicidal effect index) (barnyard grass (Ec) [6]): 5
- Tr (herbicidal effect index on crop) (wheat (Tr)): 1
- Ze (herbicidal effect index on crop) (corn (Ze)): 0
- Herbicidal effect index, Eo (barnyard grass (Eo) [7]): 5

Structure (SMILES): CC(C)C(c1cncnc1C(F)(F)F)N(C(=O)Cc1ccc(Cl)cc1)C1CC1 (racemic) [Compound 1-81]
- herbicidal effects, Se (green foxtail) (green foxtail (Se)): 5
- Herbicidal effect index, Mo (monochoria (Mo) [1]): 5
- Mo (herbicidal effects, index) (monochoria (Mo) [2]): 5
- Or (effect on crop plant rice, index) (rice (Or)): 0
- Eo (herbicidal effects, index) (barnyard grass (Eo) [3]): 5
- herbicidal effects, Ec (barnyard grass) (barnyard grass (Ec) [4]): 5
- Ec (herbicidal effects, index) (barnyard grass (Ec) [5]): 4
- Gl (herbicidal effect index on crop) (soybean (G1)): 0
- Ec (herbicidal effect index) (barnyard grass (Ec) [6]): 4
- Tr (herbicidal effect index on crop) (wheat (Tr)): 1
- Ze (herbicidal effect index on crop) (corn (Ze)): 0
- Herbicidal effect index, Eo (barnyard grass (Eo) [7]): 5

Structure (SMILES): CC(C)C(c1cncnc1C(F)(F)F)N(C(=O)Cc1ccc(F)cc1)C1CC1 (racemic) [Compound 1-83]
- herbicidal effects, Se (green foxtail) (green foxtail (Se)): 5
- Herbicidal effect index, Mo (monochoria (Mo) [1]): 5
- Mo (herbicidal effects, index) (monochoria (Mo) [2]): 5
- Or (effect on crop plant rice, index) (rice (Or)): 1
- Eo (herbicidal effects, index) (barnyard grass (Eo) [3]): 5
- herbicidal effects, Ec (barnyard grass) (barnyard grass (Ec) [4]): 5
- Ec (herbicidal effects, index) (barnyard grass (Ec) [5]): 5
- Gl (herbicidal effect index on crop) (soybean (G1)): 1
- Ec (herbicidal effect index) (barnyard grass (Ec) [6]): 5
- Tr (herbicidal effect index on crop) (wheat (Tr)): 2
- Ze (herbicidal effect index on crop) (corn (Ze)): 1
- Herbicidal effect index, Eo (barnyard grass (Eo) [7]): 5

Structure (SMILES): Cc1ccc(CC(=O)N(C)C(c2cncnc2C)C(C)C)cc1 (racemic) [Compound 1-89]
- herbicidal effects, Se (green foxtail) (green foxtail (Se)): 5
- Herbicidal effect index, Mo (monochoria (Mo) [1]): 5
- Mo (herbicidal effects, index) (monochoria (Mo) [2]): 5
- Or (effect on crop plant rice, index) (rice (Or)): 0
- Eo (herbicidal effects, index) (barnyard grass (Eo) [3]): 5
- herbicidal effects, Ec (barnyard grass) (barnyard grass (Ec) [4]): 5
- Ec (herbicidal effects, index) (barnyard grass (Ec) [5]): 5
- Gl (herbicidal effect index on crop) (soybean (G1)): 0
- Ec (herbicidal effect index) (barnyard grass (Ec) [6]): 4
- Tr (herbicidal effect index on crop) (wheat (Tr)): 2
- Ze (herbicidal effect index on crop) (corn (Ze)): 2
- Herbicidal effect index, Eo (barnyard grass (Eo) [7]): 5

Structure (SMILES): CCN(C(=O)Cc1ccc(C#N)cc1)C(c1cncnc1C(F)(F)F)C(C)C (racemic) [Compound 1-98]
- herbicidal effects, Se (green foxtail) (green foxtail (Se)): 5
- Herbicidal effect index, Mo (monochoria (Mo) [1]): 5
- Mo (herbicidal effects, index) (monochoria (Mo) [2]): 5
- Or (effect on crop plant rice, index) (rice (Or)): 1
- Eo (herbicidal effects, index) (barnyard grass (Eo) [3]): 5
- herbicidal effects, Ec (barnyard grass) (barnyard grass (Ec) [4]): 5
- Ec (herbicidal effects, index) (barnyard grass (Ec) [5]): 4
- Gl (herbicidal effect index on crop) (soybean (G1)): 0
- Ec (herbicidal effect index) (barnyard grass (Ec) [6]): 4
- Tr (herbicidal effect index on crop) (wheat (Tr)): 1
- Ze (herbicidal effect index on crop) (corn (Ze)): 1
- Herbicidal effect index, Eo (barnyard grass (Eo) [7]): 5

Structure (SMILES): CC(C(=O)N(C)C(c1cncnc1C(=O)O)C(C)C)c1ccc(Cl)cc1 (single isomer, unassigned) [Compound 1-718, 5-(1-{[2-(4-chlorophenyl)-propionyl]methylamino}-2-methylpropyl)-pyrimidine-4-carboxylic acid]
- melting point: 168 to 170 °C

Structure (SMILES): CC(C)C(c1cncnc1C(F)(F)F)N(C)C(=O)Cc1ccccc1 (stereo not drawn) [Compound 1-8, N-methyl-N-[2-methyl-1-(4-trifluoromethylpyrimidin-5-yl)propyl]phenylacetamide]
- herbicidal effects, Se (green foxtail) (green foxtail (Se)): 5
- Herbicidal effect index, Mo (monochoria (Mo) [1]): 5
- melting point: 106 to 109 °C
- herbicidal effects, Ec (barnyard grass) (barnyard grass (Ec) [4]): 5
- Ec (herbicidal effects, index) (barnyard grass (Ec) [5]): 5
- Herbicidal effect index, Eo (barnyard grass (Eo) [7]): 5

Structure (SMILES): COCN(C(=O)Cc1ccc(Cl)cc1)C(c1cncnc1C(F)(F)F)C(C)C (stereo not drawn) [Compound 1-105, N-methoxymethyl-N-[2-methyl-1-(4-trifluoromethylpyrimidin-5-yl)propyl]-4-chlorophenylacetamide]
- herbicidal effects, Se (green foxtail) (green foxtail (Se)): 5
- Herbicidal effect index, Mo (monochoria (Mo) [1]): 5
- melting point: 142 to 145 °C
- herbicidal effects, Ec (barnyard grass) (barnyard grass (Ec) [4]): 5
- Herbicidal effect index, Eo (barnyard grass (Eo) [7]): 5

Structure (SMILES): CC(C)C(c1cncnc1C(F)(F)F)N(C)C(=S)Cc1ccccc1 (stereo not drawn) [Compound 1-142, N-methyl-N-[2-methyl-1-(4-trifluoromethylpyrimidin-5-yl)propyl]phenylthioacetamide]
- herbicidal effects, Se (green foxtail) (green foxtail (Se)): 5
- herbicidal effects, Mo (monochoria) (monochoria (Mo) [1]): 5
- melting point: 93 to 94 °C
- herbicidal effects, Ec (barnyard grass) (barnyard grass (Ec) [4]): 5
- Ec (herbicidal effects, index) (barnyard grass (Ec) [5]): 4
- herbicidal effects, Eo (barnyard grass) (barnyard grass (Eo) [7]): 5

Structure (SMILES): CC(C)C(c1cncnc1C(F)(F)F)N(C)C(=O)N(C)c1ccccc1 (stereo not drawn) [Compound 1-424, 1,3-dimethyl-1-[2-methyl-1-(4-trifluoromethyl-pyrimidin-5-yl)-propyl]-3-phenylurea]
- herbicidal effects, Mo (monochoria) (monochoria (Mo) [1]): 5
- melting point: 104 to 105 °C
- Ec (herbicidal effects, index) (barnyard grass (Ec) [4]): 5
- Ec (herbicidal effects, index) (barnyard grass (Ec) [5]): 4
- herbicidal effects, Eo (barnyard grass) (barnyard grass (Eo) [7]): 5

Structure (SMILES): CC(C)C(c1cncnc1C=NO)N(C)C(=O)Cc1ccccc1 (stereo not drawn) [Compound 1-500, N-[1-(4-hydroxyiminomethylpyrimidin-5-yl)-2-methylpropyl]-N-methylphenylacetamide]
- herbicidal effects, Mo (monochoria) (monochoria (Mo) [1]): 5
- melting point: 171 to 172 °C
- herbicidal effects, Eo (barnyard grass) (barnyard grass (Eo) [7]): 5

Structure (SMILES): CC(C)C(c1cncnc1C#N)N(C)C(=O)Cc1ccccc1 (stereo not drawn) [Compound 1-504, N-[1-(4-cyanopyrimidin-5-yl)-2-methylpropyl]-N-methylphenylacetamide]
- herbicidal effects, Mo (monochoria) (monochoria (Mo) [1]): 5
- melting point: 80 to 81 °C
- Mo (herbicidal effect index) (monochoria (Mo) [2]): 5
- Or (herbicidal effect index on crop) (rice (Or)): 1
- Eo (herbicidal effect index) (barnyard grass (Eo) [3]): 5
- Ec (herbicidal effects, index) (barnyard grass (Ec) [4]): 5
- Ec (herbicidal effects, index) (barnyard grass (Ec) [5]): 5
- herbicidal effects, Eo (barnyard grass) (barnyard grass (Eo) [7]): 5

Structure (SMILES): CC(C)C(c1cncnc1C(F)(F)F)N(C)C(=O)N(C)Cc1ccc(Cl)cc1 (stereo not drawn) [Compound 1-532, 1-(4-chlorobenzyl)-1,3-dimethyl-3-[2-methyl-1-(4-trifluoromethyl-pyrimidin-5-yl)-propyl]-urea]
- herbicidal effects, Mo (monochoria) (monochoria (Mo) [1]): 5
- melting point: 95 to 98 °C and 95 to 96 °C
- Mo (herbicidal effect index) (monochoria (Mo) [2]): 5
- Or (herbicidal effect index on crop) (rice (Or)): 1
- Eo (herbicidal effect index) (barnyard grass (Eo) [3]): 5
- Ec (herbicidal effects, index) (barnyard grass (Ec) [4]): 5
- Ec (herbicidal effects, index) (barnyard grass (Ec) [5]): 5
- herbicidal effects, Eo (barnyard grass) (barnyard grass (Eo) [7]): 5

Structure (SMILES): CC(C)C(c1cncnc1C(F)(F)F)N(C)C(=O)Cc1ccccn1 (stereo not drawn) [Compound 2-3, N-methyl-N-[2-methyl-1-(4-trifluoromethylpyrimidin-5-yl)propyl]-2-pyridylacetamide]
- herbicidal effects, Mo (monochoria) (monochoria (Mo) [1]): 5
- melting point: 99 to 100 °C
- herbicidal effects, Eo (barnyard grass) (barnyard grass (Eo) [7]): 5
